# Experimental data taken from ChEMBL document CHEMBL1136147, “Sub-nanomolar hMC1R agonists by end-capping of the melanocortin tetrapeptide His-D-Phe-Arg-Trp-NH(2)” (Bioorg Med Chem Lett, 2003).
# Experiments:
# [1] = target: T1, Melanocortin receptor 4 (Homo sapiens, UniProt P32245); assay: Binding affinity towards human melanocortin 4 receptor (hMC4R)
# [2] = target: T2, Melanocyte-stimulating hormone receptor (Homo sapiens, UniProt Q01726); assay: Binding affinity towards human Melanocortin 1 receptor (hMC1R)
# [3] = target: T3, Melanocortin receptor 3 (Homo sapiens, UniProt P41968); assay: Binding affinity towards human Melanocortin 3 receptor (hMC3R)
# [4] = target: T2, Melanocyte-stimulating hormone receptor; assay: In vitro agonist potency was evaluated in HEK293 cells transfected with human melanocortin receptor (hMC1R); format: functional, cell-based
# [5] = target: T1, Melanocortin receptor 4; assay: In vitro agonist potency was evaluated in HEK293 cells transfected with human melanocortin receptor (hMC4R); format: functional, cell-based
# [6] = target: T3, Melanocortin receptor 3; assay: In vitro agonist potency was evaluated in HEK293 cells transfected with human melanocortin receptor (hMC3R); format: functional, cell-based
# T3 sequence (P41968 whole entry): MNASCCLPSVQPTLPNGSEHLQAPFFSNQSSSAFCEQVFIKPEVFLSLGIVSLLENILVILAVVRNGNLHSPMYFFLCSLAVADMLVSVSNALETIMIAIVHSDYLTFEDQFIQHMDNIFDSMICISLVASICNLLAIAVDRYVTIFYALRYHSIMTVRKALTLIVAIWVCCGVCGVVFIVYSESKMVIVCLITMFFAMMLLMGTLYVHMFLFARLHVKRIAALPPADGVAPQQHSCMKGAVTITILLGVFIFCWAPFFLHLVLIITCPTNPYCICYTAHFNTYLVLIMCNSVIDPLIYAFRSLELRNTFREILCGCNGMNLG
# T2 sequence (Q01726 whole entry): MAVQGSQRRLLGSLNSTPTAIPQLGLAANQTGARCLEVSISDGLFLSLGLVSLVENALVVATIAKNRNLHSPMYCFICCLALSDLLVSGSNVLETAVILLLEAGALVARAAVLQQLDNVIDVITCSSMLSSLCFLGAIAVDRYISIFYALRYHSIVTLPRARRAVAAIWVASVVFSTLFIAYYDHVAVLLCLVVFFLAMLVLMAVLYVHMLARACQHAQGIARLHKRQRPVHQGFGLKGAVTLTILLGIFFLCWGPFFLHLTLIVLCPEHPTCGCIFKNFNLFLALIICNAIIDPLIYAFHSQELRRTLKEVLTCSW
# T1 sequence (P32245 whole entry): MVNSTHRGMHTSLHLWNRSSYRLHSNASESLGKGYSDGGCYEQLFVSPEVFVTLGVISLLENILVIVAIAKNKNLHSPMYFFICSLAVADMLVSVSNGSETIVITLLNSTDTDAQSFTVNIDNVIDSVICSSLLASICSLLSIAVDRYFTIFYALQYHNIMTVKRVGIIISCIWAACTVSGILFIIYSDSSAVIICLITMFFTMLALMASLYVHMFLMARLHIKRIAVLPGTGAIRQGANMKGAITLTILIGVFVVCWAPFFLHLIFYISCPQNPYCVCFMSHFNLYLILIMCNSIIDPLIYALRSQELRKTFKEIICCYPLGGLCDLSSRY
Compound,Ki [1] [nM],Ki [2] [nM],Ki [3] [nM],EC50 [4] [nM],EC50 [5] [nM],EC50 [6] [nM]
N=C(N)NCCC[C@H](NC(=O)[C@H](Cc1ccccc1)NC(=O)[C@H](Cc1cnc[nH]1)NC(=O)C(N)=O)C(=O)N[C@@H](Cc1c[nH]c2ccccc12)C(N)=O,140,62,160,7,16.5,58
N=C(N)NCCC[C@H](NC(=O)[C@H](Cc1ccccc1)NC(=O)[C@H](Cc1c[nH]cn1)NC(=O)CO)C(=O)N[C@@H](Cc1c[nH]c2ccccc12)C(N)=O,440,125,630,7,53,300
COCC(=O)N[C@@H](Cc1cnc[nH]1)C(=O)N[C@@H](Cc1ccccc1)C(=O)N[C@@H](CCCNC(=N)N)C(=O)N[C@@H](Cc1c[nH]c2ccccc12)C(N)=O,350,91.5,380,9.5,42.5,570
N#CCC(=O)N[C@@H](Cc1c[nH]cn1)C(=O)N[C@@H](Cc1ccccc1)C(=O)N[C@@H](CCCNC(=N)N)C(=O)N[C@@H](Cc1c[nH]c2ccccc12)C(N)=O,110,86.5,350,8,18,160
N=C(N)NCCC[C@H](NC(=O)[C@H](Cc1ccccc1)NC(=O)[C@@H](N)Cc1cnc[nH]1)C(=O)N[C@@H](Cc1c[nH]c2ccccc12)C(N)=O,180,51,890,31.8,29.7,350
CCCC(=O)N[C@@H](Cc1cnc[nH]1)C(=O)N[C@@H](Cc1ccccc1)C(=O)N[C@@H](CCCNC(=N)N)C(=O)N[C@@H](Cc1c[nH]c2ccccc12)C(N)=O,150,37.5,580,4.5,38.5,93.3
CSCC(=O)N[C@@H](Cc1cnc[nH]1)C(=O)N[C@@H](Cc1ccccc1)C(=O)N[C@@H](CCCNC(=N)N)C(=O)N[C@@H](Cc1c[nH]c2ccccc12)C(N)=O,210,57.5,230,9,41,230
CS(=O)(=O)N[C@@H](Cc1c[nH]cn1)C(=O)N[C@@H](Cc1ccccc1)C(=O)N[C@@H](CCCN=C(N)N)C(=O)N[C@@H](Cc1c[nH]c2ccccc12)C(N)=O,170,260,1900,88,21.5,840
CCC(=O)N[C@@H](Cc1c[nH]cn1)C(=O)N[C@@H](Cc1ccccc1)C(=O)N[C@@H](CCCN=C(N)N)C(=O)N[C@@H](Cc1c[nH]c2ccccc12)C(N)=O,160,47.5,540,7.5,38.5,450
N=C(N)NCCC[C@H](NC(=O)[C@H](Cc1ccccc1)NC(=O)[C@H](Cc1cnc[nH]1)NC(=O)C1CC1)C(=O)N[C@@H](Cc1c[nH]c2ccccc12)C(N)=O,87,43,210,3.5,20.5,71
CC(C)C(=O)N[C@@H](Cc1cnc[nH]1)C(=O)N[C@@H](Cc1ccccc1)C(=O)N[C@@H](CCCNC(=N)N)C(=O)N[C@@H](Cc1c[nH]c2ccccc12)C(N)=O,97.5,40,280,7,24,130
CC(C)(C)C(=O)N[C@@H](Cc1cnc[nH]1)C(=O)N[C@@H](Cc1ccccc1)C(=O)N[C@@H](CCCNC(=N)N)C(=O)N[C@@H](Cc1c[nH]c2ccccc12)C(N)=O,160,43,130,5,14.5,13
N=C(N)NCCC[C@H](NC(=O)[C@H](Cc1ccccc1)NC(=O)[C@H](Cc1c[nH]cn1)NC(=O)CC(F)(F)F)C(=O)N[C@@H](Cc1c[nH]c2ccccc12)C(N)=O,170,63.5,540,6.5,22.5,120
N=C(N)NCCC[C@H](NC(=O)[C@H](Cc1ccccc1)NC(=O)[C@H](Cc1cnc[nH]1)NS(=O)(=O)c1ccc(Cl)cc1)C(=O)N[C@@H](Cc1c[nH]c2ccccc12)C(N)=O,66.5,170,440,33.3,11,390

# Results, then the compound that gave them:
Ki [1] [nM],Ki [2] [nM],Ki [3] [nM],EC50 [4] [nM],EC50 [5] [nM],EC50 [6] [nM],Compound
15.5,11.5,140,8,6.3,40.5,N=C(N)NCCC[C@H](NC(=O)[C@H](Cc1ccccc1)NC(=O)[C@H](Cc1c[nH]cn1)NC(=O)C(O)Cc1ccccc1)C(=O)N[C@@H](Cc1c[nH]c2ccccc12)C(N)=O (some centres undefined)
100,17.5,66.5,2,13,28,N=C(N)NCCC[C@H](NC(=O)[C@H](Cc1ccccc1)NC(=O)[C@H](Cc1c[nH]cn1)NC(=O)Cc1ccccc1)C(=O)N[C@@H](Cc1c[nH]c2ccccc12)C(N)=O
120,20.5,170,2,26.5,45,CCCCC(=O)N[C@@H](Cc1cnc[nH]1)C(=O)N[C@@H](Cc1ccccc1)C(=O)N[C@@H](CCCNC(=N)N)C(=O)N[C@@H](Cc1c[nH]c2ccccc12)C(N)=O
–,0.006,13.5,0.009,–,–,NC(=O)[C@H](Cc1c[nH]c2ccccc12)NC(=O)[C@H](CCCN=C(N)N)NC(=O)[C@@H](Cc1ccccc1)NC(=O)[C@H](Cc1cnc[nH]1)NC(=O)CCCc1ccccc1
100,34,440,13.7,21.3,640,N=C(N)NCCC[C@H](NC(=O)[C@H](Cc1ccccc1)NC(=O)[C@H](Cc1cnc[nH]1)NC(=O)CCCO)C(=O)N[C@@H](Cc1c[nH]c2ccccc12)C(N)=O
68,6,110,2,11.5,6,N=C(N)NCCC[C@H](NC(=O)[C@H](Cc1ccccc1)NC(=O)[C@H](Cc1c[nH]cn1)NC(=O)COc1ccc(Cl)cc1)C(=O)N[C@@H](Cc1c[nH]c2ccccc12)C(N)=O
5,3.5,20,9.5,7.5,9.3,N=C(N)NCCC[C@H](NC(=O)[C@H](Cc1ccccc1)NC(=O)[C@H](Cc1cnc[nH]1)NC(=O)Cc1ccc(Cl)cc1)C(=O)N[C@@H](Cc1c[nH]c2ccccc12)C(N)=O
49,6,65,0.5,20,17,N=C(N)NCCC[C@H](NC(=O)[C@H](Cc1ccccc1)NC(=O)[C@H](Cc1c[nH]cn1)NC(=O)CCc1ccccc1)C(=O)N[C@@H](Cc1c[nH]c2ccccc12)C(N)=O
–,37,770,13,–,170,CC(=O)N[C@@H](Cc1c[nH]cn1)C(=O)N[C@@H](Cc1ccccc1)C(=O)N[C@@H](CCCN=C(N)N)C(=O)N[C@@H](Cc1c[nH]c2ccccc12)C(N)=O
160,30,260,6.8,28,98.3,N=C(N)NCCC[C@H](NC(=O)[C@H](Cc1ccccc1)NC(=O)[C@H](Cc1c[nH]cn1)NC(=O)c1ccccc1)C(=O)N[C@@H](Cc1c[nH]c2ccccc12)C(N)=O
